Read-outs that look alike come from different tables or passages of the source.

Data set [1] has as its system LAD2 cells.
Experimental: (§1) LAD2 cells were suspended in culture medium (50 μl, 1.0×10^6 cells/ml) and placed on top of 50 μl of hydrogel matrix or culture medium solution. After an 4 h or 24 h incubation, cell viability was measured using a 2,3-bis-(2-methoxy-4-nitro-5-sulfophenyl)-2H-tetrazolium-5-carboxanilide (XTT) proliferation kit (Roche Molecular Biochemicals, Indianapolis, Ind., USA), according to the manufacturer's supplied instructions. To facilitate a uniform distribution of color throughout the hydrogel matrix, 50 μl of DMSO was added into each well prior to analysis.
The test system of data set [2] is LAD2 cells. As to the kind of experiment: β-hex release assay, co-culture with well insert (0.2 μm pore size filter). The data set is classed as cell-based, human. The note with it: 30 min. Here is the method: To evaluate the immobilization effect of (RADA)4-GG-(PAMP-12) (SEQ ID NO: 2) in the matrices. As shown in FIG. 6 (A), 0.25×10^5 LAD2 cells in 100 μl HEPES buffer (10 mM, with 0.4% BSA, pH 7.4) were co-incubated with well inserts that contain 50 μl of self-assembling matrix (20% and 100% w/w of (RADA)4-GG-(PAMP-12) (SEQ ID NO: 2)) or PAMP-12 (SEQ ID NO: 3) solution in HEPES buffer (10 mM, with 0.4% BSA, pH 7.4) with the corresponding concentration (0.29 and 1.46 mM respectively). After 30 min incubation, inserts were removed, and the β-hex release was measured as described.

The next data set has as its system TPSAB1 (tryptase) mRNA. As to the kind of experiment: In vitro activation of mast cells in human skin, ddPCR for TPSAB1 expression. The note with it: human skin without epidermis (NSE), 4 h; 10 μM PAMP-12, pure (RADA)4 matrix or matrix with 20% w/w (RADA)4-GG-(PAMP-12); NS average taken as 100. The text has this:
Human skin was harvested from abdominoplasty surgical discard specimens obtained following written informed consent as approved by the University of Alberta research ethics board. All tissue was from healthy non-smokers in their 30s. Human skin was separated from the underlying adipose tissue using a 15 blade scalpel. The epidermis was then removed using a […] dermatome (Integra LifeSciences Corporation, Cincinnati, Ohio) set to 0.25 mm thickness. The deepithelialized dermis was then divided into multiple pieces 1 cm^2 using sharp surgical scissors. Control or active hydrogel matrix (100 μl) was then layered onto the exposed surface of the dermis. […] For some groups, PBS and PAMP-12 PBS solution were used as negative and positive control. Following this, tissue pieces were removed and snap frozen in liquid nitrogen and stored at -80° C. until further processing. […] To obtain the absolute quantity of TPSAB1 transcripts, ddPCR (QX100, Bio-Rad, Hercules, Calif.) was employed using 5 ng of each cDNA sample and ddPCR supermix for the specific probes (Bio-Rad) according to manufacturer's protocols. […] QuantaSoft Software (Bio-Rad) was employed to analyze ddPCR results, and the absolute concentration of TPSAB1 transcripts in each sample determined by ddPCR was divided by the ACTB transcripts and presented as percentage based on normal skin samples (NS average taken as 100).

Data set [3] deals with LAD2 cells. Briefly: β-hexosaminidase (β-hex) release assay, peptide solutions. Format: cell-based, human. The note with it: 30 min. The procedure: LAD2 (Laboratory of Allergic Diseases 2) human mast cells were incubated in StemPro-34 SFM medium (Life Technologies, Rockville, Md.) supplemented with 2 mM L-glutamine, 100 I/ml penicillin, 50 μg/ml streptomycin, 100 ng/ml recombinant human SCF (Peprotech, Rocky Hill, N.J.). Cells were maintained at 0.1×10^6 cells/ml at 37° C. and 5% CO2. Cell suspensions were isolated via centrifugation (200 g, 5 min, at room temperature) and media was replaced every 3-7 days. For each well, 0.25×10^5 LAD2 cells were washed and resuspended in 90 μl HEPES buffer (10 mM, with 0.4% BSA, pH 7.4), and activated by adding 10 μl peptide solutions (PAMP-12 […], (RADA)4 (SEQ ID NO: 1) and (RADA)4-GG-(PAMP-12) (SEQ ID NO: 2)) in PBS (1×, pH 7.4) for 30 min at 37° C., the final concentrations of peptide are 0, 0.01, 0.1, 1, 10, 20, 50, 100 μM respectively. β-hex release was quantified through analysis of the hydrolysis of p-nitrophenyl N-acetyl-b-D-glucosamide (Sigma Aldrich, Oakville, ON, Canada) in 0.1 M sodium citrate buffer (pH 4.5) for both the supernatant and in total cell lysates solubilized with 0.01% Triton X-100 for 90 min at 37° C. The reaction was stopped by adding glycine buffer (pH 10.7). Read absorbance at 405 nm with reference filter at 620 nm. The percent-age of β-hex released into the supernatant was calculated by the β-hex contents of supernatant and cell lysate.

Data set [4] has as its system LAD2 cells. As to the kind of experiment: Cell viability analysis using XTT assay. In general terms: Formazan colour is commonly taken as a measure of viable cells.
Experimental: as §1

Take `CC(=O)N[C@@H](Cc1ccccc1)C(=O)N[C@@H](CCCNC(=N)N)C(=O)N[C@@H](CCCCN)C(=O)N[C@@H](CCCCN)C(=O)N[C@@H](Cc1c[nH]c2ccccc12)C(=O)N[C@@H](CC(N)=O)C(=O)N[C@@H](CCCCN)C(=O)N[C@@H](Cc1c[nH]c2ccccc12)C(=O)N[C@@H](C)C(=O)N[C@@H](CC(C)C)C(=O)N[C@@H](CO)C(=O)N[C@@H](CCCNC(=N)N)C(N)=O` [PAMP-12, Ac-FRKKWNKWALSR-CONH2, reference compound]: the “effect on LAD2 proliferation (XTT)” value in the data set on LAD2 cells [1] is on record as “no statistically significant effect”. Besides, the “degranulation of LAD2 (β-hex release)” value in the data set on LAD2 cells [2] (0.29 mM PAMP-12 solution in insert) is 65.4±2.6%; with LAD2 cells [2] (1.46 mM PAMP-12 solution in insert) it was 69.5±1.2%. In addition, the “TPSAB1 expression level, normalized to ACTB” value in the data set with TPSAB1 (tryptase) mRNA was 224.2±9.920 percentage. The “LAD2 degranulation (β-hex release)” value in the data set with LAD2 cells [3] (peptide solutions, various concentrations, compared with PBS) was “induced significant degranulation”. Further, in the data set on LAD2 cells [3] (solution free peptide, 10 μM), the “β-hex release (plateau)” value is roughly 75%.
For the molecule `CC(=O)N[C@@H](CCCNC(=N)N)C(=O)N[C@@H](C)C(=O)N[C@@H](CC(=O)O)C(=O)N[C@@H](C)C(=O)N[C@@H](CCCNC(=N)N)C(=O)N[C@@H](C)C(=O)N[C@@H](CC(=O)O)C(=O)N[C@@H](C)C(=O)N[C@@H](CCCNC(=N)N)C(=O)N[C@@H](C)C(=O)N[C@@H](CC(=O)O)C(=O)N[C@@H](C)C(=O)N[C@@H](CCCNC(=N)N)C(=O)N[C@@H](C)C(=O)N[C@@H](CC(=O)O)C(=O)N[C@@H](C)C(N)=O` [(RADA)4, RADARADARADARADA, reference compound], the “cytotoxicity to LAD2 cells (XTT)” value with LAD2 cells [4] (PAMP-12 10 μM, 0.5% w/v hydrogel matrices (pure (RADA)4 or 20% w/w (RADA)4-GG-(PAMP-12)), 4 h or 24 h) is on record as “not cytotoxic”. For the same molecule, the “effect on LAD2 proliferation (XTT)” value with LAD2 cells [4] (same treatments, after 24 h incubation) was “no statistically significant effect”.

These data come from US11370822B2, “Self-assembling peptide for activating human mast cells” (The Governors of the University of Alberta, priority 2017, dated 2022).
